Legend:
[1] = system: T1, Honey bee AChE (AmAChE); assay: Ellman assay; assay type: biochemical, Apis mellifera; settings: no test compound; sodium phosphate pH 7.6, DTNB, ethanol/Tween 20; bee isolate; read-out: KM (× 10^-5 M)
T1 construct: gene AmAChE1; native isolate from nurse bees
From the text: Ellman assay on Honey bee AChE (AmAChE)

[2] = system: T2, Varroa destructor AChE (VdAChE); assay: Ellman assay, […] nm; assay type: biochemical; settings: no test compound; sodium phosphate pH 7.6, DTNB, ethanol/Tween 20; mite extract; read-out: KM (× 10^-5 M)
T2 construct: native extract from pre-frozen mites

[3] = molecular target: T3, Human expressed AChE (hAChE) (Homo sapiens, UniProt P22303); assay: Ellman assay, Michaelis-Menten kinetics with inhibitor; assay type: biochemical; settings: acetylthiocholine; 0.5-3 mM compound; pH 7.6; competitive
T3 construct: recombinant, commercial lyophilized powder (Sigma C1682)

[4] = substrate: CC(=O)SCC[N+](C)(C)C; assay: purified protein; assay type: biochemical, Homo sapiens; settings: no test compound, sodium phosphate pH 7.6, DTNB, ethanol/Tween 20

CC(=O)SCC[N+](C)(C)C [acetylthiocholine iodide]
Km [1]: 22 µM
Km [2]: 14 µM

CCN(CC)C(=O)c1cccc(C)c1 [DEET]
Ellman assay, Michaelis-Menten kinetics with inhibitor [3]: all three forms of the enzyme, hAChE, AmAChE and VdAChE, were competitively inhibited by DEET

B1: Human expressed AChE (hAChE) (Homo sapiens) (protein)
chain: EGREDAELLVTVRGGRLRGIRLKTPGGPVSAFLGIPFAEPPMGPRRFLPPEPKQPWSGVVDATTFQSVCYQYVDTLYPGFEGTEMWNPNRELSEDCLYLNVWTPYPRPTSPTPVLVWIYGGGFYSGASSLDVYDGRFLVQAERTVLVSMNYRVGAFGFLALPGSREAPGNVGLLDQRLALQWVQENVAAFGGDPTSVTLFGESAGAASVGMHLLSPPSRGLFHRAVLQSGAPNGPWATVGMGEARRRATQLAHLVGCPPGGTGGNDTELVACLRTRPAQVLVNHEWHVLPQESVFRFSFVPVVDGDFLSDTPEALINAGDFHGLQVLVGVVKDEGSYFLVYGAPGFSKDNESLISRAEFLAGVRVGVPQVSDLAAEAVVLHYTDWLHPEDPARLREALSDVVGDHNVVCPVAQLAGRLAAQGARVYAYVFEHRASTLSWPLWMGVPHGYEIEFIFGIPLDPSRNYTAEEKIFAQRLMRYWANFARTGDPNEPRDPKAPQWPPYTAGAQQYVSLDLRPLEVRRGLRAQACAFWNRFLPKLLSATDTLDEAERQWKAEFHRWSSYMVHWKNQFDHYSKQDRCSDL
notes: recombinant, commercial lyophilized powder (Sigma C1682)
Km [4]: (1.0 ± 0.2) × 10^-4 M
Vmax [4]: 51 µM/min

Source: publication PMC10336134, “Effects of dialkoxybenzenes against Varroa destructor and identification of 1-allyloxy-4-propoxybenzene as a promising acaricide candidate” (Scientific Reports, 2023)
